Data as given in patent US20150272992A1, “Treatment of Tumors with Activated Mesenchymal Stem Cells” (THE TEXAS A&M UNIVERSITY SYSTEM, priority 2012, published 2015).

Key:
Format in all cases: cell-based, human
MDA cells [1] = test: MDA cells incubated with agent alone (live cell counting, MTT, Annexin V/7AAD)
Protocol: (§1) hMSCs were plated at 10^5 cells in CCM in 6-well plates and incubated for 4 hrs. For pre-activation, hMSCs were incubated at 37° C. for 24 hrs in 2% CM containing 10 ng/mL TNF-α. For co-culture, an equal number of MDA cells in 2% CM with or without TNF-α (10 ng/mL) were added to hMSC containing wells. For transwell cultures, hMSCs were plated at 10^5 cells in the upper compartment (Transwell, 0.4 μm pore size; Corning; Corning, N.Y.), while an equal number of MDA cells was plated in the lower compartment in 2% CM with or without TNF-α (10 ng/mL). After 24 hrs, supernatants and cells were collected. For some experiments, MDA cells were treated with 1 to 100 ng/mL doxorubicin (Sigma-Aldrich) in 2% CM for 24 his at 37° C., prior to co-culture with hMSCs. In other experiments, hMSCs were treated with either apoptotic MDA cells or 1 μg/mL Polyinosinic-Polycytidylic acid [Poly(I:C); Sigma-Aldrich; St. Louis, Mo.] with or without TNF-α (10 ng/ml) for 24 hrs in 2% CM.
(§2) hMSCs and MDA cells from co-culture experiments were suspended in PBS and incubated with CD90-PE (Clone Thy1/310; Beckman Coulter) for 45 minutes on ice, washed with PBS by centrifugation, incubated at RT for 20 minutes with 300 ng/mL annexin V (AnnexinV-FITC Apoptosis Detection Kit; Sigma-Aldrich) and 4 μg/mL 7-aminoactinomycin D (7AAD; Sigma-Aldrich.), and analyzed by flow cytometry (Cytomics FC500; Beckman Coulter).

TRAIL = TRAIL expression in hMSCs (real-time RT-PCR, Western, ELISA, IF)
Protocol: (§3) Approximately 200 ng of total RNA extracted from cultured cells was used to synthesize double-stranded complementary DNA (cDNA) by reverse transcription (SuperScript III; Invitrogen). cDNA was analyzed by real-time PCR using TaqMan Universal PCR Master Mix (Applied Biosystems). For the assays, reactions were incubated at 50° C. for 2 minutes and at 95° C. for 10 minutes followed by 40 cycles at 95° C. for 15 seconds and 60° C. for 1 minute. For relative quantitation of gene expression, human-specific GAPDH primers and probe (Taq-Man Gene Expression Assays ID, Hs00266705_g1) were used. The other PCR primers and probes were human DKK3 (Hs00247426_m1), human TRAIL (TNFSF10: Hs00921974_m1) and human TLR3 (Hs01551078_m1) all purchased from the same source (Applied Biosystems).
(§4) Cultured cells were sorted using FACS after CD90-PE staining. Sorted samples were lysed (Cell Extraction Buffer; Invitrogen) and sonicated for 15-20 seconds (Ultrasonic Processor, 130W; Cole-Parmer; Vernon Hills, Ill.). […] The samples were heated at 97° C. for 5 minutes. Denatured protein samples were separated by electrophoresis on polyacrylamide gels (NuPAGE® Bis-Tris Gels; Invitrogen) and proteins transferred to Invitrolon™ PVDF membrane (Pore size—0.45 μm; Invitrogen) using Novex® NuPAGE® SDS-PAGE Gel System (Invitrogen). Membranes were then blocked for 1 hour at room temperature (RT) using blocking buffer that contained 5% non-fat dry milk (Cell Signaling Technologies, Inc.) in Tris-buffered saline with 0.1% Tween-20 (TBST). After blocking, membranes were incubated overnight at 4° C. with primary antibodies that were diluted in 5% BSA in TBST. The membranes were washed with TBST three times for 5 minutes each, and incubated with secondary antibodies, which were diluted in blocking buffer, for 1 hour at RT. After secondary antibody incubation, the membranes were washed with TBST three times and developed using West-Q Chemiluminescent Substrate Kit (Gendepot, Inc.; Barker, Tex.) for 1 minute. Images were taken using Molecular Imager VersaDoc™ MP 4000 (Bio-rad Laboratories). The membranes were washed with TBST three times and stripped using Restore™ Western Blot Stripping buffer (Thermo Fisher Scientific, Inc.) for 15 minutes at 37° C., followed by three more washes with TBST. The membranes were blocked for 1 hour using blocking buffer and incubated with β-actin primary antibody conjugated with HRP (1:10,000) diluted in blocking buffer followed by imaging as described above. […]
Conditioned media from cultured MDA and hMSCs were collected after 24 hour incubation. For the DKK-3 assay, culture media were filtered (Spin-X® Centrifuge Tube Filter, 0.22 μm; Corning, Inc) and the protein level was detected by ELISA (Human Dkk-3 DuoSet; R&D Systems). […]

MDA cells [2] = test: Co-culture of hMSCs and MDA cells (Annexin V/7AAD apoptosis, live cell counting)
Protocol: as §1, §2
hMSCs (5×10^4 cells/well in 6 well plate) were treated with either TLR3 antibody (5 μg/mL; eBioscience, Inc; San Diego, Calif.), TRAIL antibody (25 μg/mL; BD Biosciences, Inc; San Jose, Calif.), or normal mouse IgG (5 or 25 μg/mL; PeproTech, Inc; Rocky Hill, N.J.) for 30 minutes at 37° C. in 2% CM with or without TNF-α (10 ng/mL) prior to co-culture with an equal number of MDA cells for 24 hrs.

[3] = tested on: cyclin D1, cyclin D3 and p21; test: Cyclin D1, cyclin D3 and p21 in MDA cells (Western blot, IF staining); conditions: TNF-α alone
Protocol: as §4, with “Laboratories).” for “Laboratories). The membranes were washed with TBST three times and stripped using Restore™ Western Blot Stripping buffer (Thermo Fisher Scientific, Inc.) for 15 minutes at 37° C., followed by three more washes with TBST. The membranes were blocked for 1 hour using blocking buffer and incubated with β-actin primary antibody conjugated with HRP (1:10,000) diluted in blocking buffer followed by imaging as described above.”

DKK3 = DKK3 expression in hMSCs (ELISA); conditions: 10 ng/mL TNF-α
Protocol: Conditioned media from cultured MDA and hMSCs were collected after 24 hour incubation. For the DKK-3 assay, culture media were filtered (Spin-X® Centrifuge Tube Filter, 0.22 μm; Corning, Inc) and the protein level was detected by ELISA (Human Dkk-3 DuoSet; R&D Systems). For detection of TRAIL, the filtered medium was concentrated to 4 times (Vivaspin 6 (5 kDa MWCO; GE Healthcare; UK) and assayed by ELISA (Human TRAIL Quantikine ELISA kit; R&D Systems).

TLR3 = TLR3 expression in hMSCs (real-time RT-PCR); conditions: incubation with TNF-α
Protocol: as §3
hMSCs and MDA cell were separated by cell sorting (FACS, MoFlo™ XDP; Beckman Coulter; Brea, Calif.) after labeling with CD90-PE for 45 minutes on ice. RNA was extracted using RNeasy Mini Kit (QIAGEN). See Supplemental Information for real time RT-PCR analysis.

β-catenin = β-catenin in MDA cells (IF staining); conditions: 24 hr incubation with rhDKK3
Protocol: For immunofluorescence staining, hMSCs were cultured in CCM overnight in 150 mm diameter plates and replated at 10,000 cells/cm^2 in chambered slides (Lab Tek II Chamber Slide™ System; Nunc Thermo Scientific, Rochester, N.Y.). […] After co-culture, the cells were washed with PBS twice and fixed with either methanol for anti-TRAIL antibody or 4% PFA for all other antibodies. The slides were further processed for immuno-staining as described above. The antibodies used for immunochemistry were anti-human nuclei mouse monoclonal antibody (Millipore, Billerica, Mass.) anti-GFP-Alexa Fluor® rat monoclonal antibody (RQ2; MBL Co. Ltd, Woburn, Mass.), anti-human TRAIL rabbit polyclonal antibodies (C92B9; Cell Signaling) anti-human cyclin D1 mouse monoclonal antibody (DCS6; Cell Signaling), anti-human p21 mouse monoclonal antibody (DCS60; Cell Signaling) and anti-human β-catenin mouse monoclonal antibodies (BD Bioscience, Sparks, Md.). Alexa Fluor® antibodies (Invitrogen) were used for secondary antibodies.

U87 = test: Live cell number / cell death of U87 cells; conditions: 100 ng/ml rhTRAIL, 24 hour; compared with MDA cells

COc1cccc2c1C(=O)c1c(O)c3c(c(O)c1C2=O)C[C@@](O)(C(=O)CO)C[C@@H]3O[C@H]1C[C@H](N)[C@H](O)[C@H](C)O1 [doxorubicin]
apoptosis of MDA cells (MDA cells [1]; 100 ng/mL (0.2 μM)): did not induce apoptosis
proliferation of MDA (recovery of live cells) (MDA cells [1]; 100 ng/mL (0.2 μM), 24 hrs): suppressed proliferation of MDA
number of live MDA cells recovered from cultures (MDA cells [1]; after 24 hrs, 1 to 100 ng/mL, dose dependent): decreased the number of live MDA cells

DNase
increase of TRAIL in hMSCs by apoptotic MDA cells pre-treated with enzyme (TRAIL; 24 hr incubation): inhibited the increase of TRAIL in hMSCs

IFN-γ: pro-inflammatory agent
up-regulation of TRAIL in hMSCs (TRAIL; 24 hour incubation of hMSCs with the agent, real time RT-PCR): 30 fold

Polyinosinic-Polycytidylic acid [poly(I:C)]
MDA apoptosis when agent added to co-cultures (MDA cells [2]; poly(I:C)/TNF-α pre-activated hMSCs, 24 hr): small but statistically significant increase in MDA apoptosis
expression of TRAIL in hMSCs (TRAIL; 1 μg/mL Poly(I:C), 24 hrs): increased expression of TRAIL in hMSCs

TNF-α
expression of cyclin D1, D3 and p21 in MDA cells [3]: had no significant effect
expression of DKK3 protein in hMSCs (DKK3): up-regulated
concentration adequate to activate hMSCs to induce MDA apoptosis (MDA cells [2]; co-culture): 0.1 ng/mL
activation of hMSCs to induce apoptosis of MDA cells in co-culture (MDA cells [2]; over the range of 0.1 to 10 ng/mL): concentration dependent
expression of TLR3 in hMSCs (TLR3): increased by incubation with TNF-α
expression of TRAIL protein in hMSCs (TRAIL; 10 ng/mL TNF-α): up-regulated

rhDKK-3: recombinant human DKK3 (R&D Systems)
proliferation of MDA cells (MTT, live cell number) (MDA cells [1]; 24 hr incubation with rhDKK3): decreased
viability of MDA cells (Annexin V & 7AAD) (MDA cells [1]; rhDKK3 5 ng/mL, 24 hr): without affecting the viability of MDA cells
number of β-catenin expressing MDA (β-catenin): decreased the number of β-catenin expressing MDA

B1: rhTRAIL: recombinant human TRAIL (R&D Systems) (protein, UniProt P50591 39-281, looked up)
extracellular domain: TNELKQMQDKYSKSGIACFLKEDDSYWDPNDEESMNSPCWQVKWQLRQLVRKMILRTSEETISTVQEKQQNISPLVRERGPQRVAAHITGTRGRSNTLSSPNSKNEKALGRKINSWESSRSGHSFLSNLHLRNGELVIHEKGFYYIYSQTYFRFQEEIKENTKNDKQMVQYIYKYTSYPDPILLMKSARNSCWSKDAEYGLYSIYQGGIFELKENDRIFVSVTNEHLIDMDHEASFFGAFLVG
modifications: extracellular domain
sensitivity of U87 cells (cell death) (U87): less sensitive to rhTRAIL than MDA cells
